According to US12281119B2, “Imidazo[2,1-f][1,2,4]triazin-4-amine derivatives as TLR7 agonist” (BEIGENE, LTD., priority 2019, dated 2025):

Assays:
human TLR 8 protein = biological target: T1, human TLR 8 protein (Homo sapiens, UniProt Q9NR97); experiment: TLR8 stimulation determined using HEK-Blue Detection; type: cell-based; conditions: HEK-Blue hTLR8 cells, 16 hr, relative to Resiquimod or Motolimod maximum
T1 construct: expressed in transfected cells; host or cells: HEK293 (HEK-Blue hTLR8)
T1 sequence (Q9NR97 27-1041): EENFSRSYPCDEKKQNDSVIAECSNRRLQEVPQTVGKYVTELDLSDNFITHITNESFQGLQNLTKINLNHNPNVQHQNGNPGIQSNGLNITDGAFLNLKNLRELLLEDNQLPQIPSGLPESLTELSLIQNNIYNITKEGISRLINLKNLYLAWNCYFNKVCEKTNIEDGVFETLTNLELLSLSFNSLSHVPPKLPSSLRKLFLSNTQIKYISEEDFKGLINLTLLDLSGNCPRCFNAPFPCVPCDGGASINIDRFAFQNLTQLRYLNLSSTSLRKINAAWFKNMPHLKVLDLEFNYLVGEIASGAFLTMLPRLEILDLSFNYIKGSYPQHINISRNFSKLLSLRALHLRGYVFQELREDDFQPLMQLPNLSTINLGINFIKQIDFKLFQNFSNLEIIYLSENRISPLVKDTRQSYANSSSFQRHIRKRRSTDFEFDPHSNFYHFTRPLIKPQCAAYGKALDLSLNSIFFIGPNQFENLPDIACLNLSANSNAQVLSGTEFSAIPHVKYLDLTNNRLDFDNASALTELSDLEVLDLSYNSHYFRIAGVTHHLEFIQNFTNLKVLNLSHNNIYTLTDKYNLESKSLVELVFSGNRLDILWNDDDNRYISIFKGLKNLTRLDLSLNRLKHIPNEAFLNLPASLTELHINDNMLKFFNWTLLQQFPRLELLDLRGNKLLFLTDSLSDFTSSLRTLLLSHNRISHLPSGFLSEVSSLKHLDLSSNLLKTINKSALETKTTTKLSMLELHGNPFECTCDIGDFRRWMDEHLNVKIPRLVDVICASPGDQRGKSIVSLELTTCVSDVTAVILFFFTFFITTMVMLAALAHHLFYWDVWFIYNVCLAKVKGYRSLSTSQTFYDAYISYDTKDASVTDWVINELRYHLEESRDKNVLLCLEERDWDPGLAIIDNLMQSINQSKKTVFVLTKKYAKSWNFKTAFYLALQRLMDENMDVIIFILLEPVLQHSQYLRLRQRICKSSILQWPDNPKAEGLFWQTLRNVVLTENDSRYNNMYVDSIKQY
Source text: TLR8 Stimulation Determined Using HEK-Blue Detection
This assay was designed for studying the stimulation of human TLR 8 protein in HEK-Blue hTLR8 tool cell line by monitoring the activation of NF-1B. HEK-Blue hTLR8 cells were obtained by co-transfection of the hTLR8 gene and an optimized secreted embryonic alkaline phosphatase (SEAP) reporter gene into HEK293 cells. The SEAP reporter gene was placed under the control of the IFN-β minimal promoter fused to five NF-κB and AP-1-binding sites. Stimulation with a TLR 8 ligand activates NF-κB and AP-1 which induce the expression of SEAP. Levels of SEAP can be easily determined with HEK-Blue Detection, a cell culture medium that allows for real-time detection of SEAP. HEK-Blue Detection contains all the nutrients necessary for cell growth and a specific SEAP color substrate. The hydrolysis of the substrate by SEAP produces a purple/blue color that can be measured with a spectrophotometer.
When growing to 50-80% confluency, HEK-Blue hTLR7/8 cells were plated into 96-well plate (costar 3599) at a density of 40000 cells/well. Then compounds were added with serial dilutions over 10 points with a 1 nM-10 uM final concentration range in 0.1% DMSO/HEK-Blue Detection. The plates were then incubated for 16 hr at 37° C. in 5% CO2. The optical density at 620-655 nm was read on BMG PHERAstar FSX instrument. The EC50 for each compound was determined by calculating the percentages of the maximum activation identified with Resiquimod or Motolimod.

human TLR7 = biological target: T2, human TLR7 (Homo sapiens, UniProt Q9NYK1); experiment: TLR7 stimulation determined using HEK-Blue Detection; type: cell-based; design: expressed in transfected cells; host or cells: HEK293 (HEK-Blue hTLR7); conditions: HEK-Blue hTLR7 cells, HEK-Blue Detection (A77-A124), 16 hr, relative to Resiquimod maximum
T2 sequence (Q9NYK1 27-1049): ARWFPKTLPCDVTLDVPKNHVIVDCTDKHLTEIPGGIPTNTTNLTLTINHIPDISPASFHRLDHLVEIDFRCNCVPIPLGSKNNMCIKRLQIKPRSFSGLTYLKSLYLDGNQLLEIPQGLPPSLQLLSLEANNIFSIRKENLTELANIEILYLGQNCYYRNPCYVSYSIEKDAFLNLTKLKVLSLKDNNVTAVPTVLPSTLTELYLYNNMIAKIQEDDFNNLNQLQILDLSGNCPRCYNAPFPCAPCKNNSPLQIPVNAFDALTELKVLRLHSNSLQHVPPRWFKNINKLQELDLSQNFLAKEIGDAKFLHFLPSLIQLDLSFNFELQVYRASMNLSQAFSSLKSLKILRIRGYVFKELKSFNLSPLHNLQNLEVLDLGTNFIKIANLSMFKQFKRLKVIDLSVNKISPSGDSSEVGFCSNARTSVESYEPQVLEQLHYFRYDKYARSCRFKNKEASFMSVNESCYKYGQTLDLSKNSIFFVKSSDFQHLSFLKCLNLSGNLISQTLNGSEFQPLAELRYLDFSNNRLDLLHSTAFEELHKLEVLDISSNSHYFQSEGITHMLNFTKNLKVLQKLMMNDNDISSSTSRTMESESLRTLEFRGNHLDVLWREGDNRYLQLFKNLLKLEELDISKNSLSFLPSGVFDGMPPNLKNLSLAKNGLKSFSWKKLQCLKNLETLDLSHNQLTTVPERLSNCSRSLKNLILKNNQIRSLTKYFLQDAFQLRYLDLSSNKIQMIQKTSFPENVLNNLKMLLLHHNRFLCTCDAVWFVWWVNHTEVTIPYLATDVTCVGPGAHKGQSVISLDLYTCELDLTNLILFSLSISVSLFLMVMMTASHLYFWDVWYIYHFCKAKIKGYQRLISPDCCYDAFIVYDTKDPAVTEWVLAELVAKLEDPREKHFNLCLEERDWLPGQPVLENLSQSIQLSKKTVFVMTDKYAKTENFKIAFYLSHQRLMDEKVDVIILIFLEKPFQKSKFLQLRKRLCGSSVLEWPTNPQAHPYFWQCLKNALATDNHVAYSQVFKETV
Source text: TLR7 Stimulation Determined Using HEK-Blue Detection
This assay was designed for studying the stimulation of human TLR7 protein in HELK-Blue hTLR7 tool cell line by monitoring the activation of NF-κB. HEK-Blue hTLR7 cells were obtained by co-transfection of the hTLR7 gene and an optimized secreted embryonic alkaline phosphatase (SLAP) reporter gene into HEK293 cells. The SLAP reporter gene was placed under the control of the IFN-β minimal promoter fused to five NF-κB and AP-1-binding sites. Stimulation with a TLR7 ligand activates NF-κB and AP-1 which induce the expression of SLAP. Levels of SLAP can be easily determined with HEK-Blue Detection, a cell culture medium that allows for real-time detection of SLAP. HLK-Blue Detection contains all the nutrients necessary for cell growth and a specific SLAP color substrate. The hydrolysis of the substrate by SLAP produces a purple/blue color that can be measured with a spectrophotometer.
When growing to 50-80%0 confluency, HLK-Blue hTLR7 cells were plated into 96-well plate (costar 3599) at a density of 40000 cells/well. Then compounds were added with serial dilutions over 10 points with a 0.04 nM-10 μM final concentration range in 0.1% DMSO/BLK-Blue Detection. The plates were then incubated for 16 hr at 37° C. in […] and vortex for 30s before measurement. The optical density at 620-655 nm was read on BMG PHLRAstar FSX instrument. The EC50 for each compound was determined by calculating the percentages of the maximum activation identified with Resiquimod.

EC50 (human TLR 8 protein) [nM]	EC50 (human TLR7) [nM]	Structure (SMILES)
47	3.4	CCCC(CCO)Oc1nc(N)c2ncc(Cc3ccc(OC(C)CNC)nc3)n2n1 (single isomer, unassigned) [Compound A109, (3R or S)-3-((4-amino-7-((6-((1-(methylamino)propan-2-yl)oxy)pyridin-3-yl)methyl)imidazo [2,1-f][1,2,4]triazin-2-yl)oxy)hexan-1-ol]
65	4	CCCC(CCO)Oc1nc(N)c2ncc(Cc3ccc(CCCNC)cc3)n2n1 (single isomer, unassigned) [Compound A110, (R or S)-3-((4-amino-7-(4-(3-(methylamino)propyl)benzyl)imidazo[2,1-f][1,2,4]triazin-2-yl)oxy)hexan-1-ol]
47	1.9	CCCC(CCO)Oc1nc(N)c2ncc(Cc3ccc(OCCNC)c(F)c3F)n2n1 (single isomer, unassigned) [Compound A111, (R or S)-3-((4-amino-7-(2,3-difluoro-4-(2-(methylamino)ethoxy)benzyl)imidazo[2,1-f][1,2,4]triazin-2-yl)oxy)hexan-1-ol]
9	0.93	CCCC(CCO)Oc1nc(N)c2ncc(Cc3cc(F)c(OCCNC)cc3F)n2n1 (single isomer, unassigned) [Compound A112, (R or S)-3-((4-amino-7-(2,5-difluoro-4-(2-(methylamino)ethoxy)benzyl)imidazo[2,1-f][1,2,4]triazin-2-yl)oxy)hexan-1-ol]
98	24	CCCC(CCO)Oc1nc(N)c2ncc(Cc3cc(OCCNC)ccc3OC)n2n1 (single isomer, unassigned) [Compound A113, (R or S)-3-((4-amino-7-(2-methoxy-5-(2-(methylamino)ethoxy)benzyl)imidazo[2,1-f][1,2,4]triazin-2-yl)oxy)hexan-1-ol]
6.8	1	CCCC(CCO)Oc1nc(N)c2ncc(Cc3cc(F)c(OCCNC)c(F)c3)n2n1 (single isomer, unassigned) [Compound A114, (R or S)-3-((4-amino-7-(3,5-difluoro-4-(2-(methylamino)ethoxy)benzyl)imidazo[2,1-f][1,2,4]triazin-2-yl)oxy)hexan-1-ol]
7	0.72	CCCC(CCO)Oc1nc(N)c2ncc(Cc3ccc(OCCNC)cc3F)n2n1 (single isomer, unassigned) [Compound A115, (R or S)-3-((4-amino-7-(2-fluoro-4-(2-(methylamino)ethoxy)benzyl)imidazo[2,1-f][1,2,4]triazin-2-yl)oxy)hexan-1-ol]
51	37.8	CCCC(CCO)Oc1nc(N)c2ncc(Cc3cc(OC)cc(OCCNC)c3)n2n1 (single isomer, unassigned) [Compound A116, (R or S)-3-((4-amino-7-(3-methoxy-5-(2-(methylamino)ethoxy)benzyl)imidazo[2,1-f][1,2,4]triazin-2-yl)oxy)hexan-1-ol]
532	13	CCCC(CCO)Oc1nc(N)c2ncc(Cc3ccc(OC)c(OCCNC)c3)n2n1 (single isomer, unassigned) [Compound A117, (R or S)-3-((4-amino-7-(4-methoxy-3-(2-(methylamino)ethoxy)benzyl)imidazo[2,1-f][1,2,4]triazin-2-yl)oxy)hexan-1-ol]
21	11	CCCC(CCO)Oc1nc(N)c2ncc(Cc3cccc(OCCNC)c3OC)n2n1 (single isomer, unassigned) [Compound A118, (R or S)-3-((4-amino-7-(2-methoxy-3-(2-(methylamino)ethoxy)benzyl)imidazo[2,1-f][1,2,4]triazin-2-yl)oxy)hexan-1-ol]
2970	146	CCCC(CCO)Oc1nc(N)c2ncc(Cc3ccc(CCNC)cc3)n2n1 (single isomer, unassigned) [Compound A119, (R or S)-3-((4-amino-7-(4-(2-(methylamino)ethyl)benzyl)imidazo[2,1-f][1,2,4]triazin-2-yl)oxy)hexan-1-ol]
59	3.9	CCCC(CCO)Oc1nc(N)c2ncc(Cc3ccc(CCNC)cc3)n2n1 (single isomer, unassigned) [Compound A120, (S or R)-3-((4-amino-7-(4-(2-(methylamino)ethyl)benzyl)imidazo[2,1-f][1,2,4]triazin-2-yl)oxy)hexan-1-ol]
19	0.63	CCCC(CCO)Oc1nc(N)c2ncc(Cc3ccc(OCCNC)cc3OCC)n2n1 (single isomer, unassigned) [Compound A121, (R or S)-3-((4-amino-7-(2-ethoxy-4-(2-(methylamino)ethoxy)benzyl)imidazo[2,1-f][1,2,4]triazin-2-yl)oxy)hexan-1-ol]
